# Source: patent US20230121926A1, “METHODS FOR TISSUE REGENERATION AND KITS THEREFOR” (THE BOARD OF TRUSTEES OF THE LELAND STANFORD JUNIOR …, priority 2020, published 2023)
# Tests used:
# [1] = tested on: deep partial-thickness excisional wounds; assay: Porcine deep partial-thickness excisional wound model; format: in vivo, red Duroc pigs
# Description: Porcine deep partial-thickness excisional wound model: Prior to operation, animals were administered oral amoxicillin 10 mg/kg for 24 hours. General anesthesia was administered by Veterinary Services personnel and was established with intramuscular telazol 6-8 mg/kg, administered once as a pre-anesthetic. Animals were then intubated using an endotracheal tube and maintained on 1.5-3% of inhaled isoflurane throughout the procedure. The hair on the back was clipped and skin was cleansed initially with Betadine© solution following by a 70% alcohol rinse. Excisional wounds were created with a standard electric Zimmer dermatome (Zimmer Biomet, Warsaw, Ind.). Up to eight wounds, approximately 5 cm×5 cm in size, were created on each lateral flank, with 3-5 cm intervals between wounds (FIG. 1A). Multiple dermatome passes were performed to create deep partial-thickness wounds of uniform 0.07 inch depth. The wounds were randomly assigned to receive either FAKI hydrogel (W_IF), blank hydrogel (‘placebo’, W_H), or no hydrogel (wounded control, W) (n=6-9 wounds per condition). Animals were given oral amoxicillin 10 mg/kg post-operatively twice a day for 5 days total. Wound dressings, including FAKI hydrogel patches, were changed every other day for the first three weeks after initial injury until POD 21 (FIG. 1C). Thereafter, dressings were changed twice per week until POD 90. Animals were subject to short-term sedation for each dressing change. The actual dose delivered to the wound was tested on porcine fresh wounds (red Duroc pigs). In a time-dependent study, the amount of VS-6062 detected at approximately 0.5 mm wound depth over 24 hours ranged from 30-100 microG/g tissue by weight. The amount of VS-6062 detected beyond 1 mm wound depth was less than 5 microG/g tissue. Wound closure, visual scar assessment, and viscoelastic analyses. Wounds were monitored photographically at each dressing change. Days to wound closure, defined as complete re-epithelialization without open wound area, were determined for each wound based on gross photographic assessment. Quantification of scar metrics were performed using a Visual Analog Scale (VAS) for 5 components (vascularity, pigmentation, observer comfort, acceptability, and contour) by a panel of four blinded scar experts. Total scores are calculated as a composite of all 5 scores; lower scores indicate improved scar appearance. A Cutometer (Dual MPA 580, Courage+Khazaka Electronic, Köln, Germany) was used to evaluate the firmness and elasticity of the healing wounds at POD 60. The cutometer measures the vertical deformation of the skin surface by applying a negative pressure (suction) through a small circular diameter (2 mm probe). Cutometer assessment is the gold standard to measure viscoelasticity in human patients. Deformation (suction) for two seconds followed by two seconds of relaxation (no suction) is applied for three cycles. The elasticity ratio (ability for tissue to return back to original setpoint) was measured during the relaxation period (R2 metric). Histological and immunofluorescent staining. […] Masson's Trichrome staining and Picrosirius Red staining were performed. Picrosirius Red-stained images were captured using polarized light microscopy (Leica DM5000 B upright microscope). Collagen fibers were also visualized using Second Harmonic Generation (SHG) on a Leica SP5 upright confocal multi-photon microscope using a […]. SHG images were captured with an excitation wavelength of 860 nm, a pulse length of approximately 100 fs, and an emission filter centered at 445 nm with a 20-nm bandwidth. Forward SHG was used to image fibroblasts and backward SHG was used to image in vivo tissue sections. Analysis of fiber alignment was performed on Picrosirius Red-stained images at 40× magnification using the custom software MatFiber, an intensity-gradient-detection algorithm for analysis of overall alignment of collagen fibers and stress fibers from multiple samples. […]
# [2] = Systemic penetration of topically applied FAKI (mass spectrometry of peripheral blood); format: in vivo, pig; conditions: topical, approximately 7-10% of total body surface area, three pigs
# Description: FIG. 6B. Acute, systemic, and implantation toxicity testing of FAKI hydrogel in the porcine model. Mass spectrometry of peripheral blood samples of FAKI-treated pigs was performed to assess systemic penetration of topically applied FAKI covering approximately 7-10% of the total body surface area relative to serum FAKI levels after oral administration of FAKI from a human study. Serum FAKI concentrations via localized delivery were negligible in three independent experiments collected from three different pigs.
# [3] = Dose of VS-6062 delivered to porcine fresh wounds (tissue level by wound depth); format: in vivo, red Duroc pigs
# Description: Porcine deep partial-thickness excisional wound model: Prior to operation, animals were administered oral amoxicillin 10 mg/kg for 24 hours. General anesthesia was administered by Veterinary Services personnel and was established with intramuscular telazol 6-8 mg/kg, administered once as a pre-anesthetic. Animals were then intubated using an endotracheal tube and maintained on 1.5-3% of inhaled isoflurane throughout the procedure. The hair on the back was clipped and skin was cleansed initially with Betadine© solution following by a 70% alcohol rinse. Excisional wounds were created with a standard electric Zimmer dermatome (Zimmer Biomet, Warsaw, Ind.). Up to eight wounds, approximately 5 cm×5 cm in size, were created on each lateral flank, with 3-5 cm intervals between wounds (FIG. 1A). Multiple dermatome passes were performed to create deep partial-thickness wounds of uniform 0.07 inch depth. The wounds were randomly assigned to receive either FAKI hydrogel (W_IF), blank hydrogel (‘placebo’, W_H), or no hydrogel (wounded control, W) (n=6-9 wounds per condition). […] In a time-dependent study, the amount of VS-6062 detected at approximately 0.5 mm wound depth over 24 hours ranged from 30-100 microG/g tissue by weight. The amount of VS-6062 detected beyond 1 mm wound depth was less than 5 microG/g tissue.
# human dermal fibroblasts = assay: scRNA-seq of strained human dermal fibroblasts in 3D collagen scaffolds; format: cell-based
# Description: Using this experimental system, in vivo dermal strain patterns were mimicked, imposing biaxial strain upon the fibroblasts, while also attenuating mechanotransduction in a subset of samples. The collagen scaffolds were enzymatically digested to obtain cellular suspensions of fibroblasts, which were then processed for scRNA-seq, as shown in FIGS. 2A and 2C. All single cell data were initially analyzed in a manner blinded to phenotype of origin. Following log-normalization, pooled data were subjected to semi-supervised Louvain-based clustering and embedded into UMAP-space (Seurat). Eight transcriptionally distinct subpopulations (cluster 0 to cluster 7) were identified among cells from the pooled data superset, as shown in FIG. 2D. When unblinded, considerable permissiveness among clusters were found across both phenotypes and biological replicates, consistent with the known heterogeneity among human dermal fibroblasts (FIG. 2D).
# Fibroblast-populated 3D collagen scaffold experiments. Dermal fibroblasts were isolated from both porcine and human skin samples and cultured separately. Porcine skin was obtained from the unwounded (normal skin) areas of a euthanized red duroc pig. Human skin samples were obtained under the approved IRB (#54225) and collected from three surgical procedures; a breast mastectomy, an abdominoplasty, and a thighplasty (n=3 patients). Fibroblasts were isolated by mechanical and enzymatic digestion and cultured under standard conditions until passage 3. The primary fibroblast cultures were then used to create fibroblast-populated collagen hydrogels at final concentration of 200 k cells/mL and 2 mg/mL collagen (PureCol, Advanced Biomatrix, San Diego, Calif.), following protocols as described in Chen, K. et al, “Role of boundary conditions in determining cell alignment in response to stretch”, PNAS 115, 986-991, doi:10.1073/pnas.1715059115 (2018), the entire disclosure of which is hereby incorporated by reference in its entirety. In brief, collagen scaffolds were formulated in a cruciform shape in petri dishes with a PDMS coating (˜4 mm) on the bottom (FIG. 2B). Pins were pushed through the hydrogel cruciform arms to constrain the scaffolds in both directions for a 24h pre-culture period before being subjected to either no strain, 10% equibiaxial strain, or strain+FAKI treatment for an additional 48 hours (FIGS. 2A-2B, FIG. 9A). FAKI treatment was administered by adding 20 mM FAKI in DMSO into the culture media of the scaffolds to achieve a final concentration of 10 micromolar FAKI for 48 hours. Strain was imposed by removing the anchoring pins, manually extending the hydrogel cruciform arms, and pushing the pins back to hold the arms in the new, extended position. Nine Titanium (IV) oxide paint dots (Sigma-Aldrich) were applied on the surface of the central region of the gel (boxes in FIG. 9A) to track and quantify the imposed strains. A digital camera was used to image the markers before and after strain. Photographs of marker position were used to compute a single homogenous deformation gradient tensor F that provided the least-squares best fit mapping of the 9 marker positions from the undeformed to deformed positions by solving the overdetermined matrix equation: […]
# Single cell barcoding, library preparation, and single cell RNA sequencing. After two days of increased (induction of strain) or inhibited (induction of strain+FAKI) mechanotransduction, collagen scaffolds were micro-dissected and enzymatically digested to obtain cellular suspensions of human fibroblasts for droplet-based microfluidic single cell RNA sequencing (scRNA-seq) using the 10× Chromium Single Cell platform (FIG. 2C) (Single Cell 3′ v3, 10× Genomics, USA). A droplet of the cell suspensions, reverse transcription master mix, and partitioning oil was loaded onto a single cell chip and processed on the Chromium Controller. […]
# dermal fibroblasts = assay: Fibroblast-populated 3D collagen scaffold under strain (alignment, contraction); format: cell-based, human
# Description: Mechanotransduction shifts human fibroblast heterogeneity. […] To confirm the translational potential of the results in the porcine model on the role of mechanotransduction in the fibrotic response, dermal fibroblasts isolated from human surgical patients were then evaluated. Cells were seeded within 3D collagen scaffolds at densities of 2.0 mg/mL collagen and 200,000 cells/mL (FIG. 2A). To artificially increase tissue forces, the mechanical strain applied to fibroblasts was precisely manipulated as described in Chen, K. et al, “Role of boundary conditions in determining cell alignment in response to stretch”, PNAS 115, 986-991, doi:10.1073/pnas.1715059115 (2018), the entire disclosure of which is hereby incorporated by reference in its entirety, and shown in FIG. 2B and FIG. 9A. […] The efficacy of this in vitro system to mimic the fibrogenic phenotype observed in healing wounds and resultant scar was confirmed. […] Fibroblast reorganization of ECM drives collagen remodeling and development of long, aligned collagen fibers characteristic of fibrosis. […]
# Fibroblast-populated 3D collagen scaffold experiments. […] Nine Titanium (IV) oxide paint dots (Sigma-Aldrich) were applied on the surface of the central region of the gel (boxes in FIG. 9A) to track and quantify the imposed strains. […]
# [4] = POD 60, versus untreated wounds
# [5] = porcine wound tissue, treated vs untreated
# [6] = 10% strain, 10 micromolar FAKI, 48 hours
smiles,measurement,setting,value
CN(c1ncccc1CNc1nc(Nc2ccc3c(c2)CC(=O)N3)ncc1C(F)(F)F)S(C)(=O)=O [VS-6062],"regeneration of secondary structures (hair follicles, cutaneous glands)","[1]; Masson's Trichrome, POD 90 and POD 180",regrowth of hair follicles and other cutaneous glands
same,wound elasticity (cutometer),[1]; [4],increased elasticity
same,wound firmness (cutometer),[1]; [4],decreased firmness
same,intradermal adipocytes (Perilipin A staining),"[1]; POD 90, deep dermal layer",regeneration of Perilipin A-positive intradermal adipocytes
same,healing earlier than wounds treated with standard dressings or empty hydrogels,[1]; controls healed after POD 24,more than 10 days
same,gross appearance of the treated wounds,[1]; difference in scarring evident as early as POD 40,normal appearing skin
same,collagen structure of healed wounds (Picrosirius Red),"[1]; pig, in vivo",basket weave-like collagen structure characteristic to unwounded porcine skin
same,protein expression of Collagen I (immunofluorescence),[1]; [5],decreased
same,protein expression of Collagen III (immunofluorescence),[1]; [5],decreased
same,protein expression of MMP1 (immunofluorescence),[1]; [5],increased
same,protein expression of MMP3 (immunofluorescence),[1]; [5],increased
same,protein expression of alpha SMA (immunofluorescence),[1]; [5],decreased
same,time at which wounds were fully healed,"[1]; sustained release hydrogel scaffold, 5x5 cm wounds",14±2.3 postoperative day (POD)
same,CT-FIRE fiber count,[1]; trend,return number of fibers closer to unwounded skin
same,serum FAKI concentrations via localized delivery,[2],negligible
same,amount of VS-6062 detected in wound tissue,"[3]; approximately 0.5 mm wound depth, over 24 hours",30-100 microG/g tissue by weight
same,amount of VS-6062 detected in wound tissue,[3]; beyond 1 mm wound depth,less than 5 microG/g tissue
same,expression of AIMP3,human dermal fibroblasts; [6],increased
same,expression of MMP1,human dermal fibroblasts; [6],increased
same,expression of Mmp10,human dermal fibroblasts; [6],significantly upregulated
same,transcription of COL1A1,human dermal fibroblasts; [6],strongly reduced
same,transcription of COL3A1,human dermal fibroblasts; [6],strongly reduced
same,"strain-induced pro-fibrotic, myofibroblast and mechanotransduction gene expression (ACTA2, PDGFRA, RUNX1, ZEB2, MAPK1, PI3KR1, EGFR, RAC1, YAP1)",human dermal fibroblasts; strained fibroblasts with FAKI,abrogated nearly all of these fibrotic signaling changes
same,fibroblast alignment under uniaxial strain,"dermal fibroblasts; 10% uniaxial strain, 10 micromolar FAKI",aligned multi-directionally
same,contraction assay: fibroblast remodeling of the ECM environment,dermal fibroblasts; collagen scaffolds,hinders the fibroblasts from remodeling (R) the ECM environment
